Test results reported in publication PMC4999848 (Toxins, 2016).
“And” between values parts separate entries of the source, which are not always exact repeats. Equal values may be shown once.

Tests used:
[1] = tested on: pancreatin; experiment: Deacetylation of 3/15ADON by pancreatin; type: in vitro ADME, porcine; conditions: pancreatin 1.23 mg/mL, PBS pH 7.4, 37 °C, substrate 100 μM
Protocol: (§1) Stock solutions of DON, 3ADON and 15ADON at 2 mg/mL were prepared in absolute ethanol and stored at −20 °C. For deacetylation assay, 3- or 15ADON were incubated with cells, explants, bacteria or digestive enzymes after being diluted in PBS^++ at a final concentration of 100 μM. PBS^++ solution containing only ethanol (at 1.5% final concentration) or DON (at 100 μM) were used in parallel as negative and positive control, respectively. For cells and explants, deacetylation assay take place in 6-well plates, wells being filled with 2 mL of PBS^++ containing either ethanol, DON, 3- or 15ADON. For fecal bacteria and digestive enzyme assay, deacetylation assay was conducted in 2 mL Eppendorf tubes filled with 1.5 mL of PBS^++ containing either ethanol, DON, 3- or 15ADON. In vitro intestinal digestion by luminal enzymes was performed using porcine enzymes from Sigma-Aldrich and physiological conditions. […] In all cases, aliquots of the reaction solution were collected immediately (i.e., “time zero” sample) or after the indicated time period at 37 °C and analyzed by HPLC. […]
(§2) Deacetylation was monitoring both in term of disappearance of 3- or 15ADON and formation of DON. […] Quantification was based on calibration with the corresponding standard using Millinium Software (Waters, Saint Quentin Falavier, France).

[2] = tested on: Caco-2 cells; experiment: Deacetylation of 3/15ADON by Caco-2 cells; type: in vitro ADME, human; conditions: for Disappearance of 3/15ADON, specific activity: Caco-2, 37 °C, substrate 100 μM; for % deacetylated: Caco-2, 6 h incubation, 100 μM
Protocol: A498, Caco-2, T84 and HepG2 cells were used as models of human renal, small intestinal, colonic and hepatic cells, respectively. Cells were routinely grown in culture media (Dulbecco’s Modified Eagle Medium (DMEM), DMEM:F12 mixture and Minimum Essential Media (MEM) for A498/Caco-2, T84 and HepG2 cells, respectively) supplemented with 10% fetal calf serum and 1% antibiotics (streptomycin–penicillin solution). Cells were grown in 25 cm^2 ventilated flask maintained at 37 °C in a 5% CO2 incubator. Cells were routinely passed using trypsin-EDTA solution. For deacetylation experiments, cells were seeded onto 6-well plates at an initial density of 200,000 cells/cm^2. HepG2 and A498 were used 3–4 days post-seeding when confluence was reached. Caco-2 and T84 cells were let to differentiate for 10–14 days post-seeding before being used. In all cases, cells were washed three times with sterile phosphate buffer saline PBS^++ (PBS containing 100 mg/L of calcium and magnesium salts) before deacetylation assay.
Stock solutions of DON, 3ADON and 15ADON at 2 mg/mL were prepared in absolute ethanol and stored at −20 °C. For deacetylation assay, 3- or 15ADON were incubated with cells, explants, bacteria or digestive enzymes after being diluted in PBS^++ at a final concentration of 100 μM. PBS^++ solution containing only ethanol (at 1.5% final concentration) or DON (at 100 μM) were used in parallel as negative and positive control, respectively. For cells and explants, deacetylation assay take place in 6-well plates, wells being filled with 2 mL of PBS^++ containing either ethanol, DON, 3- or 15ADON. For fecal bacteria and digestive enzyme assay, deacetylation assay was conducted in 2 mL Eppendorf tubes filled with 1.5 mL of PBS^++ containing either ethanol, DON, 3- or 15ADON. In vitro intestinal digestion by luminal enzymes was performed using porcine enzymes from Sigma-Aldrich and physiological conditions. Briefly, 3- or 15ADON were incubated with pepsin (at 1.6 mg/mL corresponding to 900 U/mL), trypsin (at 0.35 mg/mL corresponding to 6000 U/mL), pancreatic lipase (at 0.75 mg/mL corresponding to 18 U/mL) or pancreatin (at 1.23 mg/mL, lipase activity >10 U/mL, protease activity >100 U/mL, amylase activity >100 U/mL). Except for pepsin for which the digestion was conducted in HCl solution at 10 mM (pH 2.3), in vitro digestion was performed in PBS^++ (pH 7.4). Finally, deacetylation assay was also performed with commercial pooled S9 fractions from human liver, small intestine and kidneys as well as with pure recombinant human CES1 and CES2. […] In all cases, aliquots of the reaction solution were collected immediately (i.e., “time zero” sample) or after the indicated time period at 37 °C and analyzed by HPLC. […]

[3] = tested on: small intestinal explant; experiment: Deacetylation of 3/15ADON by human small intestinal explants; type: in vitro ADME; conditions: for Contribution to total deacetylation activity: Small intestine: percentage of sum of specific activities (Figure 8); for Disappearance of 3/15ADON, specific activity: small intestinal explant, 37 °C, substrate 100 μM; for % of deacetylation: small intestinal explants, 6 h incubation, 100 μM
From the text: Human tissue samples were obtained from patients undergoing surgery at the Hospital Nord of Marseille, unit of general and gastrointestinal surgery according to a collaborative “clinical transfer” project. The procedures were approved by the French ethic committee (CODECOH n° DC-2011-1319). Patients were from both genders (six men, three women), 31–74 years of age, all of European origin. All patients agree to use their tissues for research purposes. Samples were taken from macroscopically unaffected area as identified by the surgeon for intestinal samples or the pathologist for liver resections. Diagnoses leading to surgery were carcinoma for intestine or liver. After resection, the specimens were placed in ice-cold non-sterile Krebs solution implemented and transferred to the school of medicine on the same campus within 5 min, composition of the Krebs solution being previously described. The tissues were rinsed several times and maintained in oxygenated Krebs during 1 h for recovery before final dissection. Intestinal and hepatic resections were extensively washed and maintained in ice-cold culture media containing 1% streptomycin/penicillin solution and 50 μg/mL gentamycin. Tissues were cleaned from vascular vessels and conjunctive tissue using forceps under binocular microscope. In case of intestinal resection, muscularis and plexus were removed and only epithelial layer was kept. Intestinal and hepatic explants (wet weight of 20–30 mg) were then isolated from the cleaned resections using surgical punch (diameter of […]). […] Finally, the explants were washed 3 times with PBS^++ and transferred into 6-well plates before being used for deacetylation assay.
(§3) Stock solutions of DON, 3ADON and 15ADON at 2 mg/mL were prepared in absolute ethanol and stored at −20 °C. For deacetylation assay, 3- or 15ADON were incubated with cells, explants, bacteria or digestive enzymes after being diluted in PBS^++ at a final concentration of 100 μM. PBS^++ solution containing only ethanol (at 1.5% final concentration) or DON (at 100 μM) were used in parallel as negative and positive control, respectively. For cells and explants, deacetylation assay take place in 6-well plates, wells being filled with 2 mL of PBS^++ containing either ethanol, DON, 3- or 15ADON. For fecal bacteria and digestive enzyme assay, deacetylation assay was conducted in 2 mL Eppendorf tubes filled with 1.5 mL of PBS^++ containing either ethanol, DON, 3- or 15ADON. In vitro intestinal digestion by luminal enzymes was performed using porcine enzymes from Sigma-Aldrich and physiological conditions. Briefly, 3- or 15ADON were incubated with pepsin (at 1.6 mg/mL corresponding to 900 U/mL), trypsin (at 0.35 mg/mL corresponding to 6000 U/mL), pancreatic lipase (at 0.75 mg/mL corresponding to 18 U/mL) or pancreatin (at 1.23 mg/mL, lipase activity >10 U/mL, protease activity >100 U/mL, amylase activity >100 U/mL). Except for pepsin for which the digestion was conducted in HCl solution at 10 mM (pH 2.3), in vitro digestion was performed in PBS^++ (pH 7.4). Finally, deacetylation assay was also performed with commercial pooled S9 fractions from human liver, small intestine and kidneys as well as with pure recombinant human CES1 and CES2. S9 fractions and CES1/2 were used at 0.1 mg/mL and 5 μg/mL (corresponding to CES activity >20 U/mL), respectively. In all cases, aliquots of the reaction solution were collected immediately (i.e., “time zero” sample) or after the indicated time period at 37 °C and analyzed by HPLC. […] In all cases, the experiments were conducted in triplicate (n = 3).

[4] = Deacetylation of 3/15ADON by kidney S9 fraction; type: in vitro ADME, human; conditions: for Disappearance of 3/15ADON, specific activity: S9 kidney 0.1 mg/mL, 37 °C, substrate 100 μM; for Activity of renal S9 fraction on 3/15ADON: in words
Protocol: as §3
Deacetylation was monitoring both in term of disappearance of 3- or 15ADON and formation of DON. Measurement of DON, 3ADON and 15ADON concentrations was performed by reversed-phase HPLC using Waters Alliance System equipped with a Waters 2690 XE separation module and a Waters 996 photodiode array detector (Waters, Saint Quentin Falavier, France). The separation was achieved by mean of a LiChroCart column (125 mm × 4 mm) packed with 5 μm RP-18 Purospher gel (Merck, Darmstadt, Germany) and equipped with a LiChroCart precolumn (4 mm × 4 mm) packed with the same material (Merck). The precolumn and column were placed in room temperature. […] Quantification was based on calibration with the corresponding standard using Millinium Software (Waters, Saint Quentin Falavier, France).

[5] = tested on: pepsin and pancreatic enzymes (pancreatin, trypsin, lipase); experiment: Deacetylation of 3/15ADON by luminal digestive enzymes (taken together); type: in vitro ADME, porcine; conditions: percentage of sum of specific activities (Figure 8)
Protocol: as §1, §2

SMILES	Disappearance of 3/15ADON, specific activity [1] [pmol/min/mg]	Disappearance of 3/15ADON, specific activity [2]	% deacetylated [2]	Contribution to total deacetylation activity: Small intestine [3] [%]	Disappearance of 3/15ADON, specific activity [3]	% of deacetylation [3]	Disappearance of 3/15ADON, specific activity [4]	Activity of renal S9 fraction on 3/15ADON [4]	Contribution to total deacetylation activity: Pancreatic enzymes [5] [%]
CC(=O)OC[C@]12[C@H](O)C(=O)C(C)=C[C@H]1O[C@@H]1[C@H](O)C[C@@]2(C)[C@]12CO2 [15ADON, 15-acetyldeoxynivalenol]	26 ± 17	152 pmol/min/mg and 152 ± 38 pmol/min/mg	22.4% ± 5.5%	13	85 pmol/min/mg and 85 ± 65 pmol/min/mg	17.2% ± 13.4%	16 pmol/min/mg and 16 ± 5.8 pmol/min/mg	minor activity, if any	26
CC(=O)O[C@@H]1C[C@]2(C)[C@@]3(CO)[C@H](O)C(=O)C(C)=C[C@H]3O[C@H]1[C@@]21CO1 [3ADON, 3-acetyldeoxynivalenol]	24 ± 16	479 pmol/min/mg and 479 ± 97 pmol/min/mg	69.1% ± 14.3%	26	338 pmol/min/mg and 338 ± 69 pmol/min/mg	67.3% ± 13.8%	33 pmol/min/mg and 33 ± 8.3 pmol/min/mg	minor activity, if any	10
